Data taken from patent US8932617B2, “Methods for treating or preventing restenosis and other vascular proliferative disorders” (priority 2004, dated 2015).
Where “and” joins values, the source holds several entries; their conditions need not be identical. Identical values can stand only once. Entries after “also recorded” stand apart in the source; their conditions may differ. Like-named read-outs stand apart in the source and are kept apart here. Marks after values point to notes of the source that are not given here.

Tests used:
SMC dATP pools = test: Intracellular dNTP quantitation (dATP pools) by HPLC; type: cell-based, rat; settings: 24 hours; for dATP levels: control 303; for maximal reduction in dATP content: Didox 0-200 μM, Imidate 0-200 μM, HU 0-1000 μM
Procedure: SMC were plated in T150 flasks and treated with Didox (0-200 μM), Imidate (0-200 μM) or HU (0-1000 μM) and incubated for 24 hours. Following the 24 hour incubation period, the cells were trypsinized and collected in 50 mL centrifuge tubes along with the incubation media. All the extraction steps were performed on ice. Immediately before processing, cells were counted and viability determined using the trypan blue exclusion method. The cells were then centrifuged 5 minutes at 800×g. The cell pellet was then deproteinized with the same volume of 6% TCA, vortexed for 20 s and incubated on ice for 10 minutes. The acid cell extracts were centrifuged 10 min at 2000×g. The supernatants were then supplemented with an equal volume of distilled water, vortexed for 60 s and neutralized by the addition of 5M K2CO3 prior to HPLC analysis. dNTP detection was carried out using an ESA (Chelmsford, Mass.) HPLC chromatographic system with UV-Vis detection. Chromatographic separations were performed using a TosoHaas C18 reverse phase column (ODS 80Tm 250×4.6 mm, 5 μm pore). The mobile phase was delivered at a rate of 1.0 mL/min during the analysis using the following stepwise gradient elution program: A-B (80-20) at 0 min; (40-60) at 30 min; (40-60) at 40 min and (80-20) at 45 min. Buffer A contained 10 mM tetrabutylammonium sulfate, 10 mM KH2PO4 and 0.25% MeOH, and adjusted to pH 6.9. Buffer B consisted of 5.6 mM tetrabutylammonium sulfate, 50 mM KH2PO4 and 30% MeOH, and neutralized to pH 7.0. The injection volume for analysis was 50 μL. Detection was carried out at 254 nm.
In order to further validate that the observed anti-proliferative properties afforded by these compounds was through inhibition of ribonucleotide reductase activity, the effects of these compounds on intracellular dATP pools were measured.

[1] = system: rat carotid artery, balloon mediated injury (restenosis); test: Rat balloon carotid injury (Example 2), morphometric analysis at 2 and 6 weeks; type: in vivo; settings: for decrease in neointimal area / decrease in intima/media ratio: 200 mg kg^-1 d^-1 i.p. for 7 days
Description: Male Wistar rats, weighing 400-450 g (Harlan) were fed standard pellet feed and given water ad libitum. The experimental protocol was designed in accordance with Institutional ILACUC standards. Animals were anesthetized with Isoflurane (1.5-2%) in air. The right carotid artery was exposed and a 2F Fogarty balloon embolectomy catheter (Baxter) was inserted via an external carotid arteriotomy incision. The catheter was advanced to the common carotid artery, inflated to a pressure of 2 atm and rotated in a forward and retrograde direction. The catheter was then deflated and the process repeated three times. Treatment cohorts were divided into 5 groups (n=6-8/group): Control (sham operated), Didox (200 mg-kg^−1 d^−1), Imidate (200 mg kg^−1)HU (200 mg kg^−1 d^−1) and vehicle (saline). Drugs were administered daily by i.p. injection for a period of 7 days after injury. At 2 weeks post-injury, rats were euthanized by pentobarbital overdose and perfused with 10% buffered formalin Carotid arteries were removed and placed in the same fixative. Tissues were then embedded in paraffin, and 4 to 5 sections (4 μm) were cut at multiple levels. These sections were then stained with hematoxylin-eosin or elastic-van Gieson stain. Sections were examined microscopically and the cross-sectional areas of the lumen, neointima (from the internal elastic lamina to the lumen), and media were determined using digital microscopy with Spot Advanced software. The intima-to-media (I/M) ratio was then calculated from the determined mean. The data represent the mean±SD.
The effects of Didox, Imidate, and Hydroxyurea (HU) on the vascular remodeling process following arterial injury were determined using a rat model of balloon mediated carotid injury. Each compound (200 mg kg^−1 d^−1) was delivered via i.p. injection for a period of 7 days post injury. These dosages are based on previously published reports and represent ½ the maximum tolerated dose of Hydroyurea in rats (Gupta and Yaffe, (1982) Pediatr Pharmacol (New York) 2:85-91; Vaughan et al., (1989) Cancer Chemother Pharmacol 23:26-30).
At 14 days post injury the animals were sacrificed and morphometric analysis was carried out in order to asses the histopathological changes in the vessel wall (FIG. 1). […] HU afforded similar vascular protective effects to those observed with Didox and Imidate, resulting in a 55% decrease in neointimal area and a 63% decrease in intima/media ratio (FIG. 2). […] However, because the remodeling process occurs over a prolonged period of time, additional studies were performed in order to determine whether the vascular protective effects observed would be mitigated over time.
To further investigate long-term efficacy of the one week dosing regimen, the duration of the study period was increased to 6 weeks. […] The beneficial effect of ribonucleotide reductase inhibition persisted over the long term. Each compound (200 mg kg^−1 d^−1) was given i.p. for a period of 7 days followed by a 5 week recovery period. […] Similarly, Imidate offered a 61% reduction in neointimal area and a 62% reduction in intima/media ratio (FIG. 3).

rat vascular SMC = test: Smooth muscle cell migration, wound scrape assay with PDGF; type: cell-based; settings: for SMC migratory rate: 100 μM, PDGF 10 ng/mL, 24 hour period, control 15.8
Procedure: A wound scrape assay was performed using rat vascular SMC. The cells were grown to confluence on 60 mm dishes. The cells were then made quiescent by incubating them in media containing 0.1% serum for 24 hrs followed by treatment with Didox, Imidate (0-100 μM), or HU (0-1000 μM) in media containing 0.1% serum and platelet derived growth factor (PDGF) at concentration of 10 ng/mL. Linear wounds were made by scraping each plate with the tip of a 20 μL pipette. The ability of cells to migrate across the wound area was measured using digital microscopy. SPOT advanced software (Diagnostic Instruments, Inc., Sterling Heights, Mich.) was used to measure the wound immediately, 2, 4, 12 and 24 hrs following injury. The data are presented as rate of migration and represent the mean±SD.
SMC migration is also a component of neointimal proliferation. Therefore, additional studies were performed in order to determine the effects of these compounds on SMC migration. Using a wound scrape assay, SMC migration studies were carried out in the presence of Didox, Imidate, and HU. VSMC's were cultured to confluence on 60 mm dishes. The cells were made quiescent by incubating in media containing 0.1% serum. Following 24 hours of serum deprivation, Didox, Imidate, and HU were added to the wells (10-1000 μM) in the presence of PDGF (10 ng/mL) and a linear wound was made across the plate. SMC migration across the wound was monitored by digital microscopy over a 24 hour period. […] In contrast, HU (100 μM) had little effect on SMC migration, resulting in a migratory rate of […] (FIG. 4). […] This would be expected to contribute to the vascular protective effects afforded by these drugs.

[2] = system: Rat vascular smooth muscle cells; test: SMC proliferation, cell count by flow cytometry; type: cell-based; settings: 24 hours incubation, cells counted by flow cytometry, read-out: IC50 on inhibition of smooth muscle cell growth
Procedure: SMC were plated on 6 well dishes at a density of 2×10^5 cells per well. Cells were then treated with Didox (0-200 μM), Imidate (0-200 μM) or HU (0-1000 μM) and incubated for 24 hours. Following the 24 hour incubation period, the cells were trypsinized and collected in 15 mL centrifuge tubes. The cells were then centrifuged 5 minutes at 800×g. The supernatant was discarded and the pellet was resuspended in 5 ml PBS. The cells were centrifuged 6 minutes at 200×g. The supernatant was removed and the pellet was then thoroughly resuspended in 0.5 ml PBS. The cell suspension was transferred into tubes containing 70% ethanol, keeping the cells in fixative for greater than about 2 hours. The ethanol suspended cells were centrifuged 5 minutes at 200×g, and the ethanol was decanted. The cell pellet was resuspended in 5 ml PBS and after one minute was centrifuged 5 min at 200×g. The top layer of liquid was again removed and the cell pellet was resuspended in 1 ml PI/Triton X-100 staining solution with RNAse A. This staining solution was then incubated at room temperature for 30 minutes. Flow cytometry was then performed using a FACS Calibur (Becton Dickenson). The data are presented as the mean.
Didox, Imidate, and to a much lesser degree, HU, are known to be ribonucleotide reductase inhibitors (Elford, (1968) Biochem Biophys Res Commun 33:129-135; Elford et al., (1970) J Biol Chem 245:5228-5233; Elford et al., (1979) Cancer Res 39:844-851). ribonucleotide reductase catalyzes the reductive conversion of ribonucleotides to deoxynucleotides. This reductive reaction is a prime target for impeding cellular proliferation, and therefore amenable to inhibiting VSMC replication, because it is a rate limiting step in the biochemical pathway leading to DNA synthesis (Elford et al., (1970) J Biol Chem 245:5228-5233; Elford et al., (1979) Cancer Res 39:844-851; Takeda and Weber, (1981) Life Sci 28:1007-1014; Natsumeda et al., (1985) Cancer Res 45:2556-2559). […] Therefore, the IC50 of each compound on inhibition of smooth muscle cell growth was determined. […]

[3] = system: rat carotid artery, balloon mediated injury (restenosis); test: Rat model of balloon mediated carotid artery injury (Example 1), morphometric analysis; type: in vivo; settings: two weeks post injury; intraperitoneal injection; vs untreated injured artery
Procedure: To determine the ability of the ribonucleotide reductase inhibitors to affect restenosis, a rat model of balloon mediated carotid artery injury was utilized. Percutaneous transluminal carotid angioplasty (PTCA) was performed using a 2F Fogarty Embolectomy Catheter, which was inserted through the right, external carotid artery and inflated (2 atm) and deflated four times inside the right common carotid artery and rotated to cause endothelial injury. Immediately following the carotid injury, the rats received ribonucleotide reductase inhibitors, Didox (N,3,4-trihydroxybenzamide) Imidate (ethyl-3,4,5-trihydroxybenzenecarboximidate.HCl), or Hydroxyurea via intraperitoneal injection. The degree of restenosis was assessed using morphometric analysis at two weeks post injury.

[4] = 6 weeks post injury, 5 week recovery

SMILES | dATP levels (SMC dATP pools; 5 μM) | dATP levels (SMC dATP pools; 10 μM) | dATP levels (SMC dATP pools; 50 μM) | dATP levels (SMC dATP pools; 100 μM) | dATP levels (SMC dATP pools; 200 μM) | maximal reduction in dATP content (SMC dATP pools) | decrease in neointimal area [1, 4] | decrease in intima/media ratio ([1]; 14 days post injury) | decrease in neointimal area ([1]; 14 days post injury) | SMC migratory rate (rat vascular SMC) | IC50 [2] | dATP levels (SMC dATP pools; 500 μM) | dATP levels (SMC dATP pools; 1000 μM) | Lumen, % change as compared to injured vessel (increase in lumen area) [3] | Neointima, % change as compared to injured vessel (decrease in neointimal formation) [3] | Neointima/Media, % change as compared to injured vessel (reduction in intima/media ratio) [3] | Wall Thickness, % change as compared to injured vessel (reduction) [3] | effect on SMC migration (rat vascular SMC; HU concentrations up to 1 mM, listed as HU) | IC50 ([2]; Rattus norvegicus) | change in medial area ([1]; one week of systemic administration after balloon injury)
O=C(NO)c1ccc(O)c(O)c1 [Didox, N-3,4-trihydroxybenzamide] | 297 Pmoles/10^7 cells | 260 Pmoles/10^7 cells | 203* Pmoles/10^7 cells | 140* Pmoles/10^7 cells | 126* Pmoles/10^7 cells | 58% | 64% | 61% and 60% | 62% | 1.7 µm/h | 67 µM |  |  |  |  |  |  |  |  | 
NC(=O)NO [Hydroxyurea, reference compound] | 320 Pmoles/10^7 cells |  |  | 266 Pmoles/10^7 cells |  | 69% | 71% | 63% | 55% | 15.1 µm/h |  | 93 Pmoles/10^7 cells | 92 Pmoles/10^7 cells | ↑22 ± 5% | ↓ 91 ± 6% | ↓ 93 ± 7% | ↓ 54 ± 9% | No further inhibition; also recorded: no effect on SMC migration | 266 µM | 
CCOC(=N)c1cc(O)c(O)c(O)c1.Cl [Imidate, ethyl-3,4,5-trihydroxybenzenecarboximidate-HCl] | 293 Pmoles/10^7 cells | 311 Pmoles/10^7 cells | 210 Pmoles/10^7 cells | 184* Pmoles/10^7 cells | 173* Pmoles/10^7 cells | 42% | 61% | 55% and 60% | 57% | 0.9 µm/h |  |  |  | ↑19 ± 5% | ↓ 65 ± 7% | ↓ 69 ± 8% | ↓ 41 ± 7% |  | 82 µM | small but statistically significant decrease in medial area
